Values of other authors, collected in patent US7592468B2, “Production of Δ 9 tetrahydrocannabinol” (Resolution Chemicals Limited, priority 2003, dated 2009).

Settings: greater than Δ8-THC

Structure (SMILES): CCCCCc1cc(O)c2c(c1)OC(C)(C)[C@@H]1CCC(C)=C[C@@H]21 [Δ9-THC, Delta 9 tetrahydrocannabinol]
- psychomimetic activity relative to Δ8-THC: 20 times
